Assay results from ChEMBL document CHEMBL5150060 (J Med Chem, 2022).
Calls of active or inactive are those of the source. The calls are words filed in the database; no cut-off is given here.

Key:
Histone deacetylase 1 [1] = target: T1, Histone deacetylase 1 (Homo sapiens, UniProt Q13547); assay: Inhibition of recombinant human HDAC1 using p53 (Ac-RHKK(Acetyl)-AMC) as substrate preincubated for 5 mins followed by substrate addition and measured after 90 mins by fluorescence based analysis
Histone deacetylase 2 [2] = target: T2, Histone deacetylase 2 (Homo sapiens, UniProt Q92769); assay: Inhibition of recombinant human HDAC2 using p53 (Ac-RHKK(Acetyl)-AMC) as substrate preincubated for 5 mins followed by substrate addition and measured after 30 mins by fluorescence based analysis
Histone deacetylase 3 [3] = target: T3, Histone deacetylase 3 (Homo sapiens, UniProt O15379); assay: Inhibition of recombinant human HDAC3 using p53 (Ac-RHKK(Acetyl)-AMC) as substrate preincubated for 5 mins followed by substrate addition and measured after 30 mins by fluorescence based analysis
Histone deacetylase 8 [4] = target: T4, Histone deacetylase 8 (Homo sapiens, UniProt Q9BY41); assay: Inhibition of recombinant human HDAC8 using (Abz-SRGK(thio-TFA)FFRR-NH2) as substrate preincubated for 5 mins followed by substrate addition by fluorescence based analysis
T4 sequence (Q9BY41 whole entry): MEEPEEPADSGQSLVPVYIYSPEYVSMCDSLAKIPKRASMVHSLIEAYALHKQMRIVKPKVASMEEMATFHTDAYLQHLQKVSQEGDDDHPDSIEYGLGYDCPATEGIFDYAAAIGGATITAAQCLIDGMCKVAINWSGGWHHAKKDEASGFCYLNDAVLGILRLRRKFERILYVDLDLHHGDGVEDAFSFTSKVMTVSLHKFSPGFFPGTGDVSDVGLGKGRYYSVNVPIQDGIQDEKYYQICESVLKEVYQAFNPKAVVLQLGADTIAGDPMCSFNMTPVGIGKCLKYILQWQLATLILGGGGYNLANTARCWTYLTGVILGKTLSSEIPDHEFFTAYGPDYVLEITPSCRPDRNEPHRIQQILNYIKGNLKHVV

Histone deacetylase 4 = Histone deacetylase 4 (Homo sapiens, UniProt P56524); assay: Inhibition of HDAC4 (unknown origin)
[5] = target: T5, Protein deacetylase HDAC6 (Homo sapiens, UniProt Q9UBN7); assay: Inhibition of recombinant human HDAC6 (unknown origin)
T5 sequence (Q9UBN7 whole entry): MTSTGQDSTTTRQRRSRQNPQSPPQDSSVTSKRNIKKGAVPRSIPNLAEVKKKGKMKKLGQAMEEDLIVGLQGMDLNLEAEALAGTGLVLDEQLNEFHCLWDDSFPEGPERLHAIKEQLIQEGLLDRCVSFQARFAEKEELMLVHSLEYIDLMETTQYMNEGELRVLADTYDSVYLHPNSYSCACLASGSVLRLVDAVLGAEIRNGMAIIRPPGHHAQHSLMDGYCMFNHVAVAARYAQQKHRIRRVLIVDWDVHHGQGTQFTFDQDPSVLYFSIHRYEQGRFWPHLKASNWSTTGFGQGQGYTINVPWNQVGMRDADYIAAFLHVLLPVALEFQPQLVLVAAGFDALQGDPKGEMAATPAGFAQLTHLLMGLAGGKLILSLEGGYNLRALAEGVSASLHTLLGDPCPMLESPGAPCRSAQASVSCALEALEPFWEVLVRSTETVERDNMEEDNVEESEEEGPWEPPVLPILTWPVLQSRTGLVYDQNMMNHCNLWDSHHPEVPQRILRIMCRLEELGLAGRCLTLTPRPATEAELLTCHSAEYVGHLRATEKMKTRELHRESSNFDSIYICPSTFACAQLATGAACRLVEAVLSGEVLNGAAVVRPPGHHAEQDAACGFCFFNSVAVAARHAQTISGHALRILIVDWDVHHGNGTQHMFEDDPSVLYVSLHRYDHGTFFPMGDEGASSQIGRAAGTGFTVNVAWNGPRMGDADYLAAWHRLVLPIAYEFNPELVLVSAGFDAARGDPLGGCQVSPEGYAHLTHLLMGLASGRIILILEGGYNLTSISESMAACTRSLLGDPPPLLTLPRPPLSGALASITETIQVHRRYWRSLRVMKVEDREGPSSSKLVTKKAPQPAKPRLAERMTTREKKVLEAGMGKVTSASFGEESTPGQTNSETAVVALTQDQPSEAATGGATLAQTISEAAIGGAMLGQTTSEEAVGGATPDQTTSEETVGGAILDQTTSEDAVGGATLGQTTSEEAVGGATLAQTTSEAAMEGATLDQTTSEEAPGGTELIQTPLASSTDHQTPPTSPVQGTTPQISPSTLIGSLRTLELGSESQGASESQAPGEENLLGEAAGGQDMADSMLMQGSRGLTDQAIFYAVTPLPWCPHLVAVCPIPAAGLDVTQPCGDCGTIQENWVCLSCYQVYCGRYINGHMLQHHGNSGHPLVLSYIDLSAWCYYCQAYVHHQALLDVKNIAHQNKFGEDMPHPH

Histone deacetylase 11 = target: T6, Histone deacetylase 11 (Homo sapiens, UniProt Q96DB2); assay: Inhibition of recombinant human HDAC11 preincubated for 10 mins followed by substrate addition by fluorescence based analysis
T6 sequence (Q96DB2 whole entry): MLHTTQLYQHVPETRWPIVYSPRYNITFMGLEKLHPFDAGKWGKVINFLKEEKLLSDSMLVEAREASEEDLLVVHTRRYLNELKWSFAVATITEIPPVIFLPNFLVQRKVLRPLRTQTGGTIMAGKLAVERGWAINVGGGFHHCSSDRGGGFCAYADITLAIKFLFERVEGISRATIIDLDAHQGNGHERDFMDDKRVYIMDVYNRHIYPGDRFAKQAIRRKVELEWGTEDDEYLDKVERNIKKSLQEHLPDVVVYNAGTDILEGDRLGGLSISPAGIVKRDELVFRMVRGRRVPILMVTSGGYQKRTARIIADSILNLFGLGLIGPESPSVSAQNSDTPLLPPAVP

[6] = Stability of compound in DMEM/DMSO/acetonitrile at pH 7.4 measured after 6 hrs by HPLC analysis; format: physicochemical; conditions: read-out: Stability
[7] = Stability of compound in DMEM/DMSO/acetonitrile at pH 7.4 measured after 12 hrs by HPLC analysis; format: physicochemical; conditions: read-out: Stability
[8] = Stability of compound in DMEM/DMSO/acetonitrile at pH 7.4 measured after 24 hrs by HPLC analysis; format: physicochemical; conditions: read-out: Stability
[9] = Stability of compound in DMEM/DMSO/acetonitrile at pH 7.4 measured after 48 hrs by HPLC analysis; format: physicochemical; conditions: read-out: Stability
[10] = Stability of compound in DMEM/DMSO/acetonitrile at pH 7.4 measured after 72 hrs by HPLC analysis; format: physicochemical; conditions: read-out: Stability
HEK293 [11] = assay: Cytotoxicity against HEK293 cells assessed as reduction in cell viability at 50 uM after 24 hrs by alamar blue assay; format: toxicity, cell-based; conditions: human, hek293, 24 h
Histone deacetylase 8 [12] = target: T4, Histone deacetylase 8; assay: Competitive inhibition of human HDAC8 using Abz-SRGGK(STFA)FFRR-NH2 (S) as substrate by Lineweaver-burk plot analysis
[13] = target: T7, Histone deacetylase 8 (Homo sapiens) (UniProt Q9BY41); assay: Reversible binding affinity to recombinant human HDAC8 incubated for 30 mins by jump dilution method
T7 sequence (whole entry): T4 sequence (Q9BY41 whole entry)

[14] = target: T7, Histone deacetylase 8 (Homo sapiens); assay: Inhibition of HDAC8 in human Jurkat T cells assessed as increase in H3K27 acetylation at 10 uM after 6 hrs by Western blot analysis; format: cell-based
Histone deacetylase 1 [15] = target: T1, Histone deacetylase 1; assay: Inhibition of recombinant human HDAC1 at 1 uM using p53 (Ac-RHKK(Acetyl)-AMC) as substrate preincubated for 5 mins followed by substrate addition and measured after 90 mins by fluorescence based analysis relative to control; conditions: time 95.0 min
Histone deacetylase 1 [16] = target: T1, Histone deacetylase 1; assay: Inhibition of recombinant human HDAC1 at 10 uM using p53 (Ac-RHKK(Acetyl)-AMC) as substrate preincubated for 5 mins followed by substrate addition and measured after 90 mins by fluorescence based analysis relative to control; conditions: time 95.0 min
Histone deacetylase 2 [17] = target: T2, Histone deacetylase 2; assay: Inhibition of recombinant human HDAC2 at 1 uM using p53 (Ac-RHKK(Acetyl)-AMC) as substrate preincubated for 5 mins followed by substrate addition and measured after 30 mins by fluorescence based analysis relative to control; conditions: time 35.0 min
Histone deacetylase 2 [18] = target: T2, Histone deacetylase 2; assay: Inhibition of recombinant human HDAC2 at 10 uM using p53 (Ac-RHKK(Acetyl)-AMC) as substrate preincubated for 5 mins followed by substrate addition and measured after 30 mins by fluorescence based analysis relative to control; conditions: time 35.0 min
Histone deacetylase 3 [19] = target: T3, Histone deacetylase 3; assay: Inhibition of recombinant human HDAC3 at 1 uM using p53 (Ac-RHKK(Acetyl)-AMC) as substrate preincubated for 5 mins followed by substrate addition and measured after 30 mins by fluorescence based analysis relative to control; conditions: time 35.0 min
Histone deacetylase 3 [20] = target: T3, Histone deacetylase 3; assay: Inhibition of recombinant human HDAC3 at 10 uM using p53 (Ac-RHKK(Acetyl)-AMC) as substrate preincubated for 5 mins followed by substrate addition and measured after 30 mins by fluorescence based analysis relative to control; conditions: time 35.0 min
[21] = target: T7, Histone deacetylase 8 (Homo sapiens); assay: Inhibition of recombinant human HDAC8 at 1 uM using (Abz-SRGK(thio-TFA)FFRR-NH2) as substrate preincubated for 5 mins followed by substrate addition by fluorescence based analysis relative to control
[22] = target: T7, Histone deacetylase 8 (Homo sapiens); assay: Inhibition of recombinant human HDAC8 at 10 uM using (Abz-SRGK(thio-TFA)FFRR-NH2) as substrate preincubated for 5 mins followed by substrate addition by fluorescence based analysis relative to control
HEK293 [23] = assay: Cytotoxicity against HEK293 cells assessed as reduction in cell viability after 24 hrs by alamar blue assay; format: functional, cell-based; conditions: Homo sapiens, HEK293, 24 h

T1 sequence (Q13547 whole entry): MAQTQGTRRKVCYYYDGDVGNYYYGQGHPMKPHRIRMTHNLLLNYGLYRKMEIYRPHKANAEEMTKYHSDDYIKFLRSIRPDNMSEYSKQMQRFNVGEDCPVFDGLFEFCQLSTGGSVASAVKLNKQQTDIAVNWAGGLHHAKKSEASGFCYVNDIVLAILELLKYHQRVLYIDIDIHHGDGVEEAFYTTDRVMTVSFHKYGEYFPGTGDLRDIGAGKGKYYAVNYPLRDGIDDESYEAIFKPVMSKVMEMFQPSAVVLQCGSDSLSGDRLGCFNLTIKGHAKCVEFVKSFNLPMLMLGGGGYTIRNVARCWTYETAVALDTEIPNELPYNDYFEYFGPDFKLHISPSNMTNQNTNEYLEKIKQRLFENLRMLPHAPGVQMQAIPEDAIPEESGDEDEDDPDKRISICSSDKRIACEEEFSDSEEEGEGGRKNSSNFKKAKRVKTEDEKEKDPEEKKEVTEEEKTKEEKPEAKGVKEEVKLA
T2 sequence (Q92769 whole entry): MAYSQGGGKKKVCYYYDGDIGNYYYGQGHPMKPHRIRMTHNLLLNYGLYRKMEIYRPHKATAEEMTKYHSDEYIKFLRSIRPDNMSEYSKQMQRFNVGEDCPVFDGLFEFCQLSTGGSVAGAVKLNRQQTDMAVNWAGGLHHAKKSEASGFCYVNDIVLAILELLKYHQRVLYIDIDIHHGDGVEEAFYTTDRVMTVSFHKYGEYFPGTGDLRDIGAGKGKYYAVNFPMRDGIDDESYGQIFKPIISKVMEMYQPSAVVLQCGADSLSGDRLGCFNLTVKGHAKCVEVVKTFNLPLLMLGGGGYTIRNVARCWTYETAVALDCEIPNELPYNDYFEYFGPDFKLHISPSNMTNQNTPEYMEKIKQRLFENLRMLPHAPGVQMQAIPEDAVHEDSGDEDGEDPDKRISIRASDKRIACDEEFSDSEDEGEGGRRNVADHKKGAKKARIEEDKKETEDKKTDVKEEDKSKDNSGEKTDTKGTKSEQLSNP
T3 sequence (O15379 whole entry): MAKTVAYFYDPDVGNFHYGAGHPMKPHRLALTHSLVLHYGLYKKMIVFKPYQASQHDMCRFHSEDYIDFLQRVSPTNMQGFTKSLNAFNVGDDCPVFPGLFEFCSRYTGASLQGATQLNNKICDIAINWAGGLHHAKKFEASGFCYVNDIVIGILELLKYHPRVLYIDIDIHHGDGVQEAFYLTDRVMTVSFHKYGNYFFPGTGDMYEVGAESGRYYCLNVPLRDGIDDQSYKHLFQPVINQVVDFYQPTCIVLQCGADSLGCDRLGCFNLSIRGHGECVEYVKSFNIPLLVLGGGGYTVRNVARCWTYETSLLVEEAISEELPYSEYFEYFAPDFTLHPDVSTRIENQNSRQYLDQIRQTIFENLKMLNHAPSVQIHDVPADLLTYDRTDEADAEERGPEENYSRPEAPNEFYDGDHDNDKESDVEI
Histone deacetylase 4, sequence (P56524 whole entry): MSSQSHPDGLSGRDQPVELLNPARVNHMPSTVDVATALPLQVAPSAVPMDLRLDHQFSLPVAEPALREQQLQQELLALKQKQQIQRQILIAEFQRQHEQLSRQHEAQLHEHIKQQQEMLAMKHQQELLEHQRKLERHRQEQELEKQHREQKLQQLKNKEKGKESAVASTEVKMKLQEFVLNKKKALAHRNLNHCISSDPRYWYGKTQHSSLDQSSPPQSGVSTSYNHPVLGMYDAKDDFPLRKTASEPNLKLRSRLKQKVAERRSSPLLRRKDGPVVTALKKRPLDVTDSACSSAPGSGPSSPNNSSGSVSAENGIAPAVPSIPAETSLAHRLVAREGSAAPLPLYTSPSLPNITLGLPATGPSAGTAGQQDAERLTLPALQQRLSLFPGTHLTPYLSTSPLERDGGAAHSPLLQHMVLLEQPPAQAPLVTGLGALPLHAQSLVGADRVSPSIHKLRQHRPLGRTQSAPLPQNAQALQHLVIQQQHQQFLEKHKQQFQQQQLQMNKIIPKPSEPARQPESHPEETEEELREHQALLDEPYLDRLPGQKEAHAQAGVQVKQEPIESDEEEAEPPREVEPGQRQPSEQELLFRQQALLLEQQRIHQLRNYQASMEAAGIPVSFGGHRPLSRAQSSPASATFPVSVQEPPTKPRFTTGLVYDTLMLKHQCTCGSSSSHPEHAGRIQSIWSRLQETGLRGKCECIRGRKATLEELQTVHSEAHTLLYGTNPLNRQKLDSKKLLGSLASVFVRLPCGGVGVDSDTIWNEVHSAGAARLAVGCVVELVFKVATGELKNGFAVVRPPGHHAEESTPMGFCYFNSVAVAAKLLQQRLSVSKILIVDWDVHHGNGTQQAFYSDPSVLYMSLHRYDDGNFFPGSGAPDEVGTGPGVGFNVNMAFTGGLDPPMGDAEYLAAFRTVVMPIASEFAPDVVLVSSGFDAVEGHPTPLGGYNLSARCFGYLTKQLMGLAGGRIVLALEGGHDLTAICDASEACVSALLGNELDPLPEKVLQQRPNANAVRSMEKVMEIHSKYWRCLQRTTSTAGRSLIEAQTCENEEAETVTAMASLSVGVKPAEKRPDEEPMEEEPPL

`CCCNNC(=O)c1ccc(-c2ccc(CNC(C)=O)cc2)cc1` showed an IC50 (Histone deacetylase 1 [1]) of 1600 nM, an IC50 (Histone deacetylase 2 [2]) of 630 nM and an IC50 (Histone deacetylase 3 [3]) of 91 nM. It also gave an IC50 (Histone deacetylase 8 [4]) of 700 nM, an IC50 (Histone deacetylase 4) of 990 nM and an IC50 [5] of over 20000 nM. The IC50 (Histone deacetylase 11) was 1800 nM, the remaining at 6 h [6] was 98.3% and the remaining at 12 h [7] was 97.3%. It also gave a remaining at 24 h [8] of 94.9%, a remaining at 48 h [9] of 90.4% and a remaining at 72 h [10] of 86.8%. The Cell viability (HEK293 [11]) was 83.9%.

`CCCNNC(=O)c1cnc(N2CCN(Cc3c[nH]c4ccccc34)CC2)nc1` gave an IC50 (Histone deacetylase 1 [1]) of 73 nM, an IC50 (Histone deacetylase 2 [2]) of 1100 nM and an IC50 (Histone deacetylase 3 [3]) of 30 nM. The IC50 (Histone deacetylase 8 [4]) was 8.2 nM, the IC50 (Histone deacetylase 4) was over 20000 nM and the IC50 [5] was over 20000 nM. The IC50 (Histone deacetylase 11) was 570 nM, the Ki (Histone deacetylase 8 [12]) was 5.5 nM and the Activity [13] was “Active”. For the same compound, the remaining at 6 h [6] was 81.7%, the remaining at 12 h [7] was 83.3% and the remaining at 24 h [8] was 82.9%. The remaining at 48 h [9] was 27.1%, the remaining at 72 h [10] was 31.1% and the Cell viability (HEK293 [11]) was 47%. The inhibition [14] was “Active”.

Compound `CCCNNC(=O)c1cnc(NCCc2ccccc2)nc1` has an inhibition (Histone deacetylase 1 [15]) of 51%, an inhibition (Histone deacetylase 1 [16]) of 85% and an inhibition (Histone deacetylase 2 [17]) of 39%. It also gave an inhibition (Histone deacetylase 2 [18]) of 90%, an inhibition (Histone deacetylase 3 [19]) of 41% and an inhibition (Histone deacetylase 3 [20]) of 87%. It also gave an inhibition [21] of 51%, an inhibition [22] of 89% and a Cell viability (HEK293 [11]) of 80.5%.

For `CCCCCCNNC(=O)c1ccc(C)c(NCc2ccccc2)c1`, the inhibition (Histone deacetylase 1 [15]) was 9%, the inhibition (Histone deacetylase 1 [16]) was 35% and the inhibition (Histone deacetylase 2 [17]) was 5%. It also gave an inhibition (Histone deacetylase 2 [18]) of 26%, an inhibition (Histone deacetylase 3 [19]) of 9% and an inhibition (Histone deacetylase 3 [20]) of 42%. The inhibition [21] was 2%, the inhibition [22] was 100% and the Cell viability (HEK293 [11]) was 41.7%.

With `COc1cccc2c1C(=O)c1c(O)c3c(c(O)c1C2=O)C[C@@](O)(C(C)=O)C[C@@H]3O[C@H]1C[C@H](N)[C@H](O)[C@H](C)O1` [DAUNORUBICIN] the IC50 (HEK293 [23]) was 1200 nM.
